US20250195687A1, “PEPTIDE-BASED PHOSPHATE BINDER FOR THE TREATMENT OF HYPERPHOSPHATEMIA” (B. G. NEGEV TECHNOLOGIES AND APPLICATIONS LTD., priority 2022, published 2025)

Legend:
[1] = Colorimetric (molybdenum blue) phosphate binding in intestinal and gastric fluid simulants; settings: pH=6 or pH=7.5 (clinical PhB at pH=7.5)
Description: The binding efficiency of the SiO2-CysHex particles in intestinal and digestive fluid simulants was examined by a colorimetric method. The procedure was based on the determination of the amount of uncaptured phosphate from a solution of known initial phosphate concentration. A spectrophotometric assay referred to as the molybdenum blue reaction was employed. It emits a blue color whose intensity is linearly proportional to the amount of phosphate present in the solution allowing by measurement of color intensity and proper calibration, to determine phosphate concentration. The reaction involves the following two steps: • 1. PO4^3−+12(NH4)2MoO4+24H^+→(NH4)3PO4·12MoO3+21NH4^++12H2O • 2. […]
For this experiment, a phosphate assay kit (Sigma-Aldrich) with a stated concentration range between 0.005 mM and 0.025 mM phosphate was used. The kit included a 10 mM phosphate standard solution and a coloring reagent that reacts with phosphates to form a complex that could be measured and quantified by UV-VIS absorbance spectroscopy. The phosphate standard was used to prepare a calibration curve between the absorbance intensity at a wavelength of 650 nm and phosphate concentrations. […]
A volume of 20 μL of the supernatant filtrate (sec 4.3.3.1.2), 180 μL DI water, and 30 μL coloring reagent were added to a 96 well plate. Two duplicates of each sample were measured, and the resulting values were averaged. […]

[2] = 31P NMR phosphate peak widening by free peptide in intestinal fluid simulants; assay type: binding; settings: for phosphate peak widening: peptide 13.1 mM, phosphate 2.6 mM
Description: ^31P NMR-NMR relaxation is the process by which excited magnetic state nuclei return to their equilibrium distribution. At the start of an NMR experiment, the nuclei are “lined up” with the external magnetic field. When an electromagnetic RF field is activated on these nuclei, they resonate at a characteristic resonance frequency, and the NMR signal is created. At that instant, all the nuclei are in phase and coherent. However, due to small differences in their resonance frequencies, they will begin to dephase. The time it takes for the nuclei to dephase is measured by T2 the so-called spin-spin relaxation time. T2 is inversely proportional to Δω, the width of the resonance peak in the spectra measured at half the maximum height: Δω=2/T2. The more slowly a macromolecule tumbles, the shorter its T2; thus, big molecules have broader resonance peaks than small molecules. An increase in molecular size due to interaction or reduced mobility affects the T2 relaxation time and is manifested by widening the NMR signal.
In this study, phosphate-binding experiments of free (unattached to silica) peptides in intestinal fluid simulants as function of the surrounding pH were examined. Binding was determined by the widening of the relevant phosphate peaks in phosphorus NMR (^31P NMR) spectra. These experiments aimed to investigate the effect of the background solution containing many components on the ability of the peptide to bind phosphate. ^31P NMR experiments were preferred over standard ^1H NMR since in the former only one (phosphate) or at most two (phosphate and phospholipid) peaks are detected as opposed to the multitude of frequently overlapping, peaks in the spectra of the latter. […]
Samples were prepared by mixing the required amounts of phosphate stock solution, and FAS or FES solutions into one 1.5 mL Eppendorf tube, and phosphate stock, peptide stock, and FAS or FES solution into a second similar tube. in. The pH was measured and adjusted to the desired value as described above. […] The contents of each Eppendorf tube were analyzed separately by NMR as described below. […]

[3] = 31P NMR phospholipid peak widening by free peptide in FES solution; assay type: binding
Description: ^31P NMR-NMR relaxation is the process by which excited magnetic state nuclei return to their equilibrium distribution. At the start of an NMR experiment, the nuclei are “lined up” with the external magnetic field. When an electromagnetic RF field is activated on these nuclei, they resonate at a characteristic resonance frequency, and the NMR signal is created. At that instant, all the nuclei are in phase and coherent. However, due to small differences in their resonance frequencies, they will begin to dephase. The time it takes for the nuclei to dephase is measured by T2 the so-called spin-spin relaxation time. T2 is inversely proportional to Δω, the width of the resonance peak in the spectra measured at half the maximum height: Δω=2/T2. The more slowly a macromolecule tumbles, the shorter its T2; thus, big molecules have broader resonance peaks than small molecules. An increase in molecular size due to interaction or reduced mobility affects the T2 relaxation time and is manifested by widening the NMR signal. […]
The first sample used for FES solution reference was composed of 1 mL FES solution which was placed in a 1.5 mL Eppendorf tube. […] The pH was measured using a pH electrode (Mettler Toledo, SevenComplex) and adjusted to the desired value by dropwise addition of HCl or NaOH solutions. […] The contents of each Eppendorf tube were analyzed separately by NMR as described below.
Solution ^31P NMR data were collected on a Bruker Avance III 400 MHz spectrometer (Bruker BioSpin, Germany). […] A capillary tube insert filled with phosphoric acid solution in D2O (10% v/v phosphoric acid in D2O/H2O) was used for calibration and inserted into the NMR tube that contained the measured sample. […] NMR data was analyzed using TopSpin software (Bruker).
The capability of a free unbound peptide to capture phosphate in the intestinal simulant solutions was examined using P NMR. […] As discussed above, binding is qualitatively evaluated by the decrease in T2 relaxation, or the corresponding widening of the peak associated with the phosphorus nuclei in the molecule and calculated as follows: […]

Compound	Phosphate binding effectiveness ([1]; FAS) [mg phosphate/gr PhB]	Phosphate binding effectiveness ([1]; FES) [mg phosphate/gr PhB]	phosphate peak widening ([2]; FAS solution)	phosphate peak widening ([2]; FES solution)	pH range in which the peptide captures phosphate ([2]; only in FES)	pH of lowest phospholipid binding ([3]; absence of phosphate)	phospholipid binding ([3]; absence of phosphate, 6.5 peptide molecules per phospholipid molecule, entire relevant pH range)	phospholipid peak width (ratio) ([3]; pH=6, peptide 13.1 mM and phosphate 2.6 mM present, phospholipid 2 mM, average of three measurements)
O=C([O-])[O-].O=C([O-])[O-].O=C([O-])[O-].[La+3].[La+3] [Lanthanum, Lanthanum carbonate]	4.1	0.9	–	–	–	–	–	–
Cys-SGAGKT [CysHex]	–	–	no widening	pH dependent and is maximal at pH values commensurate with values in the GI tract	7-8	~6	binds the phospholipid quite effectively	0.93±0.15
